Results published in patent US20050032866A1, “The use of 5ht4 receptor antagonists in the prophylaxis or treatment of certain cardiovascular conditions” (priority 2000, published 2005).

Columns and labels:
[1] = tested on: social interaction in rats; assay: social interaction test in rats (anxiolytic activity); type: in vivo, rat
Procedure: Rats (male, Sprague Dawleys, Charles River, 250-300 g) are housed in groups of eight in a holding room for 5 days. They are then housed singly in a room adjacent to the experimental room for 4 days prior to the experimental day. On the experimental day rats are administered vehicle, test compound or a benzodiazepine anxiolytic, chlordiazepoxide, p.o. in pairs (n=8-16), at 15 minute intervals beginning at 10.00 a.m. […] The box is made of white perspex 54 cm×37 cm×26 cm with a transparent perspex front side and no lid. The floor is divided up into 24 squares and the box is brightly lit (115 lux). Active social interactive behaviours (grooming, sniffing, climbing over or under, following, biting, mounting and boxing) are scored blind for the next 15 min by remote video monitoring to give total interaction scores. The number of squares crossed by each rat is also scored and summed. After the end of each test the box is carefully wiped.

5-HT1D = 5-HT1D (Homo sapiens, UniProt P28221); assay: receptor binding studies, 5-HT1D; settings: read-out: pKd 5-HT1D (converted)
5-HT1D, sequence (P28221 whole entry, species assumed): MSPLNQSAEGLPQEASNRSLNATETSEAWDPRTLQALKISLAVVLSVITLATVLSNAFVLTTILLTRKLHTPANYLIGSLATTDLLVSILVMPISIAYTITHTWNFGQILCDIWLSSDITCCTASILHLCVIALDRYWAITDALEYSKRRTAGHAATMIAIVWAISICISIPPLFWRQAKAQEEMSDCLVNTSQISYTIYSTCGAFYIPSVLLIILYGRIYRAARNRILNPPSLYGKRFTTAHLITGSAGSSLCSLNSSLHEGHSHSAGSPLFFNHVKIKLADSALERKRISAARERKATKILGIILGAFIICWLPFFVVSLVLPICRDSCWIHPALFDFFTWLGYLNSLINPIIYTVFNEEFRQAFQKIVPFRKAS

5-HT3 = 5-HT3 (Homo sapiens, UniProt P46098); assay: receptor binding studies, 5-HT3; settings: read-out: pKd 5-HT3 (converted)
5-HT3, sequence (P46098 24-478, species assumed): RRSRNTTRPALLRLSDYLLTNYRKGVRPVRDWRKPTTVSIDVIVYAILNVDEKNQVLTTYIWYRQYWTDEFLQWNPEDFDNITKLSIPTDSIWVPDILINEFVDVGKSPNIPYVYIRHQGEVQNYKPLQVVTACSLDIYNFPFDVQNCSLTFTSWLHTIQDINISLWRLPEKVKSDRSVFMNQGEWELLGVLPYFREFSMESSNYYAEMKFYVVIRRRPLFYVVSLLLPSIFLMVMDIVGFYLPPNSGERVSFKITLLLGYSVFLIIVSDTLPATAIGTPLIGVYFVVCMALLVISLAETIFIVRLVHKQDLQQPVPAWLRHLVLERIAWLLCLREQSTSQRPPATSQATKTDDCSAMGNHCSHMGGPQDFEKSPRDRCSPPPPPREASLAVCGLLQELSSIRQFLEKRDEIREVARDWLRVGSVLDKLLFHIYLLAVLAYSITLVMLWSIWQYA

BDZ = assay: receptor binding studies, BDZ
Opiate delta = Opiate delta (Homo sapiens, UniProt P41143); assay: receptor binding studies, Opiate delta; settings: read-out: pKi Opiate delta (converted)
Opiate delta, sequence (P41143 whole entry): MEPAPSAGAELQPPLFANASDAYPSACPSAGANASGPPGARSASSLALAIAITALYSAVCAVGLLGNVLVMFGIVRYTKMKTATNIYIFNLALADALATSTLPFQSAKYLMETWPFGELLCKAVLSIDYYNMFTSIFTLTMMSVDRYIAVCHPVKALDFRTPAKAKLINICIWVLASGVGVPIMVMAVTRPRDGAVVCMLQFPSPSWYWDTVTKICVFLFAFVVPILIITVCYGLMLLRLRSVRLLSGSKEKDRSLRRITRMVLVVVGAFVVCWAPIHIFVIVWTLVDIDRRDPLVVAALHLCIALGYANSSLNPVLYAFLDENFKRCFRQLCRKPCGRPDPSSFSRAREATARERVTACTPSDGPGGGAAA

5-HT2A = 5-HT2A (Homo sapiens, UniProt P28223); assay: receptor binding studies, 5-HT2A; settings: read-out: pKd 5-HT2A (converted)
5-HT2A, sequence (P28223 whole entry, species assumed): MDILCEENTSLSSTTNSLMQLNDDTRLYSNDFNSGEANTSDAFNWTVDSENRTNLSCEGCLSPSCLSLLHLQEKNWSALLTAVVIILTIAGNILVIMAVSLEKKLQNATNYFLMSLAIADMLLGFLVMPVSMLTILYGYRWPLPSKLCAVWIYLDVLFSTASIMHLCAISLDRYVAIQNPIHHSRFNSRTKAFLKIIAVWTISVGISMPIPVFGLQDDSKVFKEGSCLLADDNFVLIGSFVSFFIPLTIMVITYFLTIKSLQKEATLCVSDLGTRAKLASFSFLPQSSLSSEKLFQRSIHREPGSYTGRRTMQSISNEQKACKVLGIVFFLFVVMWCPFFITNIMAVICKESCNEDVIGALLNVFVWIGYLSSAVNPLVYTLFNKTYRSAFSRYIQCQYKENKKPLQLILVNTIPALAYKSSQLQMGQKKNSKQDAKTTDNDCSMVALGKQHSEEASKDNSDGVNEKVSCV

5-HT4 receptor [2] = assay: 5-HT-induced motility in dog Heidenhain gastric pouch; type: in vivo
Procedure: Compounds are tested for inhibition in the in vivo method described in “Stimulation of canine motility by BRL 24924, a new gastric prokinetic agent”, Bermudez et al, J. Gastrointestinal Motility, 1990, 2(4), 281-286.
Dogs with previously prepared Heidenhain gastric pouches are fasted overnight.

5-HT2C = 5-HT2C (Homo sapiens, UniProt P28335); assay: receptor binding studies, 5-HT2C; settings: read-out: pKd 5-HT2C (converted)
D3 = D3 (Homo sapiens, UniProt P35462); assay: receptor binding studies, D3; settings: read-out: pKd D3 (converted)
D3, sequence (P35462 whole entry): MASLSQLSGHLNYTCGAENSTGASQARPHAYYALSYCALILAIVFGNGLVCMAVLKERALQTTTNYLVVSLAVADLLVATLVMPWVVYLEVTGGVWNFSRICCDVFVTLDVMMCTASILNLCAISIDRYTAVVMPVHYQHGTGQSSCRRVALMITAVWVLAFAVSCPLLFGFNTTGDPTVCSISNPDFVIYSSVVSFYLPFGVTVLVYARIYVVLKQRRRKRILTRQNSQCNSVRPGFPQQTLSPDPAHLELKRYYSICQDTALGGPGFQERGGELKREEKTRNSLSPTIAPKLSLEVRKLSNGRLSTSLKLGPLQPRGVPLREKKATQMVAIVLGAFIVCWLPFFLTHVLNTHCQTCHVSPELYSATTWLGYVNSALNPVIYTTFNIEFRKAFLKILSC

Opiate mu = Opiate mu (Homo sapiens, UniProt P35372); assay: receptor binding studies, Opiate mu; settings: read-out: pKi Opiate mu (converted)
Opiate mu, sequence (P35372 whole entry): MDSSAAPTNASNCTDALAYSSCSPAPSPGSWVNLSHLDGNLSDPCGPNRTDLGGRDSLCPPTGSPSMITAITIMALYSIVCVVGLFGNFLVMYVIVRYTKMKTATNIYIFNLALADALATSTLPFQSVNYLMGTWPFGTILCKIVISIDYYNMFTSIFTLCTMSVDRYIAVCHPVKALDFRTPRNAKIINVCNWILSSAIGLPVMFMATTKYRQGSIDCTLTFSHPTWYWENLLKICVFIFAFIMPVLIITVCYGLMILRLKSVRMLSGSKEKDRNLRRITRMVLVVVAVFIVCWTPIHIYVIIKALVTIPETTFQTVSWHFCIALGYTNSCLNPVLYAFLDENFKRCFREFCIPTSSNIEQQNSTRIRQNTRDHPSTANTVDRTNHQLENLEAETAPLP

5-HT4 receptor [3] = molecular target: T1, 5-HT4 receptor (Rattus norvegicus, UniProt Q62758); assay: rat oesophageal tunica muscularis mucosae, relaxation to 5-HT; type: cell-based
T1 construct: The inner smooth muscle tube of the muscularis mucosae is isolated and mounted for isometric tension recording; from tissue; host or cells: rat oesophageal tunica muscularis mucosae
T1 sequence (Q62758 whole entry): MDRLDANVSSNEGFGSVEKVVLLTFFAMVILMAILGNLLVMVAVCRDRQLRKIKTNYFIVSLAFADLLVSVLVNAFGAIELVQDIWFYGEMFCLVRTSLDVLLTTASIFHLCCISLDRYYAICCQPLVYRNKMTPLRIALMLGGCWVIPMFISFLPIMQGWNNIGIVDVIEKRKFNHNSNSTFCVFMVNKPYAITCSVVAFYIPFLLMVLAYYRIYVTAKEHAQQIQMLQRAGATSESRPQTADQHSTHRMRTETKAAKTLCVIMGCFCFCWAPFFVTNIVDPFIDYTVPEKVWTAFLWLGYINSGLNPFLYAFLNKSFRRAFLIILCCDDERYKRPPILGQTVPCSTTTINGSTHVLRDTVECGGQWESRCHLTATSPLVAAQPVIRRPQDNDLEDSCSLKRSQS
From the text: Rat oesophageal tunica muscularis mucosae is set up according to Baxter et. al. Naunyn-Schmiedeberg's Arch.

D2 = D2 (Homo sapiens, UniProt P14416); assay: receptor binding studies, D2; settings: read-out: pKd D2 (converted)
D2, sequence (P14416 whole entry): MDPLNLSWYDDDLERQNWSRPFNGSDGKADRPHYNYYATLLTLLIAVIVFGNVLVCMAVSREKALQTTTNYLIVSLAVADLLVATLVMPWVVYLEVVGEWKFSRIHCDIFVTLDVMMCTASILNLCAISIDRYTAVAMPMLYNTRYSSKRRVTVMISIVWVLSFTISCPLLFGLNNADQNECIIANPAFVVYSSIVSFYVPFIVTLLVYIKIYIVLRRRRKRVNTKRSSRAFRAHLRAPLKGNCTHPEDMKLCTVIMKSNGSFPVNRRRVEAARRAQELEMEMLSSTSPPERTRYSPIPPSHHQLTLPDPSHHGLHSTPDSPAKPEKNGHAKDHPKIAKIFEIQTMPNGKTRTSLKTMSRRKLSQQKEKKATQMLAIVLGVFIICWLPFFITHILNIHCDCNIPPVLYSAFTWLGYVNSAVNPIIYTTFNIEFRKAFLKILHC

5-HT4 receptors = assay: antagonism of 5-HT-evoked tachycardia in anaesthetised piglets; type: in vivo, piglet
From the text: All experiments were in 2-5 day old piglets in which the vagi were sectioned.

5-HT4 receptor [4] = molecular target: T2, 5-HT4 receptor (Cavia porcellus, UniProt O70528); assay: guinea pig distal colon longitudinal muscle-myenteric plexus, 5-HT-evoked contraction; type: cell-based
T2 construct: Longitudinal muscle-myenteric plexus preparations, approximately 3 cm long, are obtained from the distal colon region; from tissue; host or cells: guinea-pig distal colon longitudinal muscle-myenteric plexus
T2 sequence (O70528 whole entry): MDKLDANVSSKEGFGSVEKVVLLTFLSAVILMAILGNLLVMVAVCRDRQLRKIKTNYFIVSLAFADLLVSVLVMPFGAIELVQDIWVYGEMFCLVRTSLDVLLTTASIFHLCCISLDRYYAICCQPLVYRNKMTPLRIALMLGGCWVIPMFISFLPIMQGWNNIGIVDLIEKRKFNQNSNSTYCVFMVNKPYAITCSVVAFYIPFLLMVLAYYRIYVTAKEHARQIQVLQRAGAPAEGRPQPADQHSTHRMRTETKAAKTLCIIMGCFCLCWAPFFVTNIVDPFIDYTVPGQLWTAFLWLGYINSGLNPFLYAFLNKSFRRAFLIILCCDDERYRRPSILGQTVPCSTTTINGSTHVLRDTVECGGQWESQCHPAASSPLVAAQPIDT
Procedure: Male guinea-pigs, weighing 250-400 g are used.
(§1) In some experiments, this tissue was dosed alternately with an approximately equi-effective concentration of the nicotine receptor stimulant, dimethylphenylpiperazinium (DMPP).

5-HT1A = 5-HT1A (Homo sapiens, UniProt P08908); assay: receptor binding studies, 5-HT1A; settings: read-out: pKd 5-HT1A (converted)
5-HT1A, sequence (P08908 whole entry, species assumed): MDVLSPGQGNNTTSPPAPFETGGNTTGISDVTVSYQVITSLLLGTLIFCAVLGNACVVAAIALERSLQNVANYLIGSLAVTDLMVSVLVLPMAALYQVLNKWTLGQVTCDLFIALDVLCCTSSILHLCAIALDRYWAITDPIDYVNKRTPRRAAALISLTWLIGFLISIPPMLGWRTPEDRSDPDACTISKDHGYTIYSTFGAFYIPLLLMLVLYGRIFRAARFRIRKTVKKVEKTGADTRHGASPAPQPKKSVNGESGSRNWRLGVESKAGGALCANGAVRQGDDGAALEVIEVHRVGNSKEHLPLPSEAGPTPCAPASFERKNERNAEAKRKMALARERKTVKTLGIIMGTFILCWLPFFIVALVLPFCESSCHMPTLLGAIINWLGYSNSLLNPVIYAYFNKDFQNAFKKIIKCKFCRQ

[5] = tested on: DMPP-evoked contractions (nicotinic receptor agonist); assay: guinea pig colon, DMPP-evoked contractions; type: cell-based; settings: 10^−5M
Procedure: as §1

Alpha1 = assay: receptor binding studies, Alpha1
GABA = assay: receptor binding studies, GABA
Opiate kappa = Opiate kappa (Homo sapiens, UniProt P41145); assay: receptor binding studies, Opiate kappa; settings: read-out: pKi Opiate kappa (converted)
5-HT2B receptor = molecular target: T3, 5-HT2B receptor (Rattus norvegicus, UniProt P30994); assay: functional studies on the rat stomach fundus; type: cell-based
T3 construct: from tissue; host or cells: rat stomach fundus

H1 = H1 (Homo sapiens, UniProt P35367); assay: receptor binding studies, H1; settings: read-out: pKd H1 (converted)
H1, sequence (P35367 whole entry): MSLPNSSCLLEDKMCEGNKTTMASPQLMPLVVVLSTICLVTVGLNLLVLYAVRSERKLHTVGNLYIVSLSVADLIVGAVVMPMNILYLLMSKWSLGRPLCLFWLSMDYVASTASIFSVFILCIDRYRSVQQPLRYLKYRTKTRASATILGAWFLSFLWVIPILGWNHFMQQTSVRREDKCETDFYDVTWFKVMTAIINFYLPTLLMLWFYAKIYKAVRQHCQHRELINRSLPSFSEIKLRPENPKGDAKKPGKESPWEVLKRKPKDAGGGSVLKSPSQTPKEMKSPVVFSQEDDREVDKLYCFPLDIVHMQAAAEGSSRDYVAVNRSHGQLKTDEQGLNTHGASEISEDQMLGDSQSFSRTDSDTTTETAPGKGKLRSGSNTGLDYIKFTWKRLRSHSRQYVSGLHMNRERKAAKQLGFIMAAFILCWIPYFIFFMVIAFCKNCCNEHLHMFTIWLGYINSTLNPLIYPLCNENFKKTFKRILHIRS

5-HT1E = 5-HT1E (Homo sapiens, UniProt P28566); assay: receptor binding studies, 5-HT1E; settings: read-out: pKd 5-HT1E (converted)

CCCCN1CCC(CNC(=O)c2c3n(c4ccccc24)CCCO3)CC1 [SB-207266-A, N-[(1-^nbutyl-4-piperidinyl)methyl]-3,4-dihydro-2H-[1,3]oxazino[3,2-a]indole-10-carboxamide]
total interaction scores ([1]; 0.01, 1, 10 mg.kg^−1, 1 h after administration): Significantly increased | locomotion during the test ([1]; rat, in vivo): not accompanied by any alteration in locomotion | Kd (5-HT1D): > 10000 nM | Kd (5-HT3): 1150 nM | pKd BDZ (BDZ): >5.00 | Ki (Opiate delta): < 1000 nM | Kd (5-HT2A): 1290 nM | effect on basal motility (5-HT4 receptor [2]; any dose): no effect | ID50, antagonism of the contractile response to 5-HT (5-HT4 receptor [2]; iv): 1.3 (Confidence Limits 0.1-14.0) ug.kg^−1 | ID50, antagonism of the contractile response to 5-HT (5-HT4 receptor [2]; po): 9.6 (CL 0.7-128) ug.kg^−1 | Kd (5-HT2C): 2690 nM | Kd (D3): 2950 nM | Ki (Opiate mu): < 1000 nM | type of antagonism of 5-HT response (5-HT4 receptor [3]): non-surmountable antagonist | Kd (D2): 2340 nM | antagonism of 5-HT-evoked tachycardia (5-HT4 receptors; 0.1, 0.3 or 1.0 ugkg^−1 intravenously, n=2 each): antagonised the 5-HT-evoked tachycardia in a dose-dependent manner | recovery from antagonism (5-HT4 receptors; 0.3, 1.0 ugkg^−1 i.v., over the duration of the experiment): incomplete | contraction evoked by the 5-HT4 receptor partial agonist BIMU 1 (5-HT4 receptor [4]): reduced the maximum response to BIMU 1 | maximum response to 5-HT (5-HT4 receptor [4]; 3×10^−8 M and above): reduced in a concentration-dependent manner | time for recovery of responses to 5-HT upon washout (5-HT4 receptor [4]; highest concentrations (which reduce maximum 5-HT-evoked contractions)): ≤ 90 min | Kd (5-HT1A): > 10000 nM | DMPP-evoked contractions [5]: unaffected | pKd Alpha1 (Alpha1): <5.52 | pKd GABA (GABA): >5.00 | Ki (Opiate kappa): < 1000 nM | affinity for the 5-HT2B receptor (5-HT2B receptor): 7.47 | Kd (H1): 3980 nM | Kd (5-HT1E): > 10000 nM
